Test results published in ChEMBL document CHEMBL2074399, “Effects of steroids and verapamil on P-glycoprotein ATPase activity: progesterone, desoxycorticosterone, corticosterone and verapamil are mutually non-exclusive modulators” (Biochem J, 1996).

Molecular target: ATP-dependent translocase ABCB1 (Homo sapiens, UniProt P08183)
Experiment: TP_TRANSPORTER: inhibition of Verapamil stimulated ATP hydrolysis (Verapamil: 2 uM, Corticosterone: 800 uM) in membrane vesicles from DC-3F/ADX cells
Assay type: functional, cell membranes, Membrane vesicle
Conditions: hamster

Chain of ATP-dependent translocase ABCB1 (P08183 whole entry): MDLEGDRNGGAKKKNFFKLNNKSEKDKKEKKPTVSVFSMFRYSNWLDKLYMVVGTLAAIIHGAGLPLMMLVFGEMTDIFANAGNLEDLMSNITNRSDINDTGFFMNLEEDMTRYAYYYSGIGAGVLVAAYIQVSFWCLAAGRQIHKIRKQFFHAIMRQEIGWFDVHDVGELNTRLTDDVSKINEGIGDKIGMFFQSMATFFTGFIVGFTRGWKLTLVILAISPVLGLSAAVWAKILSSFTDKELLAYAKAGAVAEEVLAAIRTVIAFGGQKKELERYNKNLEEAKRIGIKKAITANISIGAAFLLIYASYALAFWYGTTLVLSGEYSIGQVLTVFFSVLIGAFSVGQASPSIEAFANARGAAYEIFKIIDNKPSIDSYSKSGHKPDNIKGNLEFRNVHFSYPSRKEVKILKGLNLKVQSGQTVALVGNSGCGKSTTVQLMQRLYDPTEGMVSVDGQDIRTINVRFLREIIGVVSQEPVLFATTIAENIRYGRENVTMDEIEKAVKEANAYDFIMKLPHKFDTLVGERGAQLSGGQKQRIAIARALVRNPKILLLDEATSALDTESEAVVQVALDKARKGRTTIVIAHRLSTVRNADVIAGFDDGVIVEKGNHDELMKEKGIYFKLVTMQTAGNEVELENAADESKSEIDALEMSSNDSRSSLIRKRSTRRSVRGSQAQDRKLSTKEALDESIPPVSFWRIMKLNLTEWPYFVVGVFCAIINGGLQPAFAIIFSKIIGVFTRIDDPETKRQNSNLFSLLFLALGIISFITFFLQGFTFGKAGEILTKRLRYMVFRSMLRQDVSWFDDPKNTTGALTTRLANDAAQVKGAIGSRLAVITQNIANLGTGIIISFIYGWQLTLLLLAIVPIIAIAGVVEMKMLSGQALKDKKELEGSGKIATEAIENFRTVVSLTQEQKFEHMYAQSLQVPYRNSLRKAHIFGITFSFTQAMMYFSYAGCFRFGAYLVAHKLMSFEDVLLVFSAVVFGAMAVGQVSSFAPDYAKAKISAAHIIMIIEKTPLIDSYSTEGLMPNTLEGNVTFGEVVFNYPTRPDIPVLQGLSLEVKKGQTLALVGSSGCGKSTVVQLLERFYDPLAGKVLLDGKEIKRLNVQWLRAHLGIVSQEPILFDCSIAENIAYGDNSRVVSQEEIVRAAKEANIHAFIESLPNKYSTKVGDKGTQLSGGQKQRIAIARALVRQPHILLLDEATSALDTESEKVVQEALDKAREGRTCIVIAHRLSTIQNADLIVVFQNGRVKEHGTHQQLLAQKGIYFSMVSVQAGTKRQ

- Activity: inhibitor [+]
SMILES: C[C@]12C[C@H](O)[C@H]3[C@@H](CCC4=CC(=O)CC[C@@]43C)[C@@H]1CC[C@@H]2C(=O)CO [CORTICOSTERONE]
